Experimental data published in patent US20260053750A1, “INHALABLE COMPOSITIONS OF CDK9 INHIBITORS” (THE REGENTS OF THE UNIVERSITY OF CALIFORNIA, priority 2022, published 2026).

What was measured:
[1] = test system: NFκB target genes; test: suppression of IL-1β-induced primary inflammatory response genes in human cell culture; format: cell-based
Experimental: CDK9 inhibitors exert effects on the inflammatory response pathway. For example, the pharmacological CDK9 inhibitor flavopiridol effectively suppresses the activation of a broad range of primary inflammatory response genes, in human cell culture treated with IL-1β for 5 hours (see FIG. 1). Among the 67 different genes (out of 84 total NFκB target genes tested) that were induced by IL-1β, 59 were repressed by flavopiridol co-treatment (including the most-characterized pro-inflammatory cytokines such as IL-1β, Il-6, and TNF). The average magnitude of repression is >86% of maximum induction. […] Importantly, house-keeping genes and non-inducible genes are not affected by CDK9 inhibition short term, indicating potential reduction in side effects.

[2] = test system: lung fibrosis mouse model (bleomycin); test: bleomycin lung fibrosis mouse model, i.p. treatment; format: in vivo, C57B/L6 mice; conditions: vs BLM+ vehicle control
Experimental: The effects of flavopiridol on lung inflammation and fibrosis were assessed in a lung fibrosis mouse model. C57B/L6 mice were treated with bleomycin (BLM) by microsprayer. At day 7 after BLM treatment, alveolar damage became apparent in the treated mice. At day 9, the mice were divided into 4 groups of 8 animals each. Each group received its corresponding treatment every other day starting at Day 9. At Day 30, the animals were sacrificed and assessed. One group received only phosphate buffer saline (PBS). One group received 28 mg/kg nitedanib by intraperitoneal injection (i.p.). One group received 2.5 mg/kg of flavopiridol i.p. and one group received 28 mg/kg idebenone i.p. Survival and lung morphology were assessed at day 30. […] Lung tissue sections from the treated animals were stained with Masson's trichome staining protocol and exemplary images are shown in FIG. 8D.

[3] = test system: pulmonary fibrosis in mice using bleomycin; test: bleomycin pulmonary fibrosis in mice, inhaled flavopiridol; format: in vivo; conditions: every two days from eight days post-bleomycin, 14-day treatment
Experimental: Our experimental model involved the induction of pulmonary fibrosis in mice using bleomycin, followed by the administration of inhaled flavopiridol during the early fibrotic phase of the model. Eight days post-intratracheal instillation of bleomycin, mice were treated with either a vehicle or inhaled flavopiridol every two days. After a 14-day treatment course, lung tissues were harvested and subjected to histological and biochemical analysis. A notable loss of body weight observed in bleomycin-exposed mice served as an indicator of successful fibrosis induction (FIG. 9).

[4] = cited from earlier work
[5] = test system: TNF-stimulated luciferase reporter expression, driven by a NF-kB responsive promoter, in HEK293 cells; test: NF-kB luciferase reporter bioactivity assay; format: cell-based, Human; conditions: 300 nM flavopiridol, 0.6 nM TNF-α, 24 h
Experimental: The bioactivity of flavopiridol released from ILDF particles was determined by a luciferase reporter assay as described previously. ILDF particles (18.94 mg) containing 0.190% (w/w) flavopiridol was dissolved in DMEM with 10% FBS to a stock solution of 8.9×10^4 nM flavopiridol. The bioactivity of flavopiridol was measured by its ability to suppress TNF-stimulated luciferase reporter expression, driven by a NF-kB responsive promoter. Human embryonic kidney 293 cells (HEK293) cells (ATCC) harboring a NF-kB-driven luciferase reporter were seeded in 96-well plates (10,000 cells/well in triplicates) 24 hours before the experiment. Cells were then treated with 100 μL of media containing 0.6 nM recombinant human TNF-α (Peprotech), in the presence or absence of various amount of dissolved flavopiridol formulation or blank formulation equivalent. After 24 h, 100 μL of 2× lysis buffer (Invitrogen) containing luciferase substrate was added directly to each well. Luminescence was measured in a plate reader (SpectraMax iD3, Molecular Devices). Experiments were performed in triplicate (N=3) from one batch of particles, and results were reported as mean±SD.

[6] = encapsulation and release in microparticles of the invention; format: physicochemical
[7] = 2.5 mg/kg i.p. every other day from Day 9, Day 30

Row | Structure (SMILES) | average magnitude of repression ([1]; human cell culture treated with IL-1β for 5 hours, flavopiridol co-treatment) | number of IL-1β-induced genes repressed by flavopiridol co-treatment ([1]; of 67 genes induced by IL-1β (84 NFκB target genes tested), human cell culture, IL-1β for 5 hours) | hydroxyproline level [2, 7] | percentage of stained area (Masson's trichome, lung sections) [2, 7] | survival rate ([2]; 2.5 mg/kg i.p. every other day from Day 9, to Day 30) | body weight ([2]; 2.5 mg/kg i.p. every other day from Day 9) | hydroxyproline levels [3] | survival rate ([3]; vs vehicle group) | in-vivo half-life [4] | TNF-α-stimulated luciferase activity [5] | encapsulation and release in microparticles [6]
1 | CN1CC[C@H](c2c(O)cc(O)c3c(=O)cc(-c4ccccc4Cl)oc23)[C@H](O)C1 [flavopiridol, 2-(2-chlorophenyl)-5,7-dihydroxy-8-[(3S,4R)-3-hydroxy-1-methyl-4-piperidinyl]-4-chromenone] | > 86 % of maximum induction | 59 | statistically significant lower level of hydroxyproline | statistically significant decrease in percentage of stained area | statistically significant difference in survival rate | generally maintained a higher body weight | appeared to suppress the bleomycin-induced increase of hydroxyproline levels | higher survival rate | under 6 hours | the luciferase activation was suppressed | –
2 | CCc1cnn2c(NCc3ccc[n+]([O-])c3)cc(N3CCCC[C@H]3CCO)nc12 [Dinaciclib] | – | – | – | – | – | – | – | – | – | – | not encapsulated effectively or released appropriately
